# Test results from patent publication US20060241067A1, “Methods For inhibiting angiogenesis, cell migration, cell adhesion, and cell survival” (priority 2002, published 2006).
# Legend:
# protein kinase A = test: PKA activity assay in HUVECs; assay type: cell-based, human; conditions: for PKA activity in endothelial cells: 10 μM PTHrP or 250 μM dibutyryl cAMP
# Method: PKA activity was measured in HUVECs essentially as previously described in Kim et al (S. Kim et al., Amer. J. Biol. Chem., 275:33920-33928 (02000)). HUVECs were placed in suspension, allowed to attach to ECM protein coated plates in the absence or presence of anti-integrin antibodies or were treated with 10 μM PTHrP and/or 250 μM cAMP. PKA activity was measured at various times from 0-4 hrs (e.g., 2-30 min).
# Plates were washed and blocked in 3% bovine serum albumin for 1 hour at 37° C. HUVECS were trypsinized and resuspended in adhesion buffer (Hanks balanced salt solution supplemented with 10 mM HEPES, pH 7.4, 2 mM MgCl2, 2 mM CaCl2, 0.2 mM MnCl2, 1% BSA. Cells were plated on matrix protein coated plates in culture medium or in the presence of 25 μg/ml anti-α5β1, anti-αvβ3 or anti-α2β1 antibodies for various times from 0 minutes to 4 hours. Plates were washed with phosphate buffered saline and cells were extracted with cold extraction buffer (50 mM Tris, pH 7.5, 5 mM EDTA, 25 μg/ml aprotinin and 25 μg/ml leupeptin). Protein Kinase A activity was assessed using a kit from Gibco BRL. Briefly, equal volumes of lysate and reaction mixture containing final concentrations of 50 mM Tris, pH 7.5, 10 mM MgCl2, 0.25 mg/ml BSA, 50 μM Kemptide (a protein kinase A substrate), 3000 Ci/mmol (γ^32 P) ATP and 100 μM ATP were combined for 5 minutes at 30° C. Total PKA in each sample was measured by performing the assay in the presence of 10 μM cAMP. Background PKA activity in test and total PKA samples were determined by performing the assay in the presence of a PKA inhibitor peptide, PKI (6-22) amide. Twenty μl samples of reaction mixtures were spotted onto phosphocellulose discs and washed repeatedly with 1% (v/v) phosphoric acid in water. Incorporated radioactivity was determined by scintillation counting. Activated PKA was calculated from the ratio of pmol/min test sample PKA to pmol/min total PKA. PKA activity in triplicate samples was measured and experiments were repeated at least three times.
# In another embodiment, PKA assays were performed with a kit from Calbiochem (San Diego, Calif.). Cell lysates were incubated in ELISA plates coated with a PKA peptide substrate, then incubated with anti-phosphoserine antibodies. Bound antibody was detected after incubation with anti-rabbit IgG-horse radish peroxidase. Statistical analyses were performed using Student's t-test.
# HUVECS = test: Annexin V-FITC staining of HUVECs (apoptosis); assay type: cell-based, human; conditions: cells on vitronectin, PTHrP, 250 μM dibutyryl cAMP or transfection
# Method: Plates were also coated with […] goat anti-mouse IgG (Southern Biotechnology Associates, Inc., Birmingham, Ala.) at 37° C. for 2 h, rinsed, blocked with denatured BSA, and then incubated with […] anti-a5b1 or control IgG (anti-MHC) at 4° C. for 16 hrs. HUVECs were incubated on plates in the presence or absence of 10 mg/ml anti-α5β1, -αvβ3, -α2β1, or -MHC for 0-24 hrs. In some experiments, HUVECs were incubated with antibodies and […] caspase-3, -8 or -9 inhibitors or vehicle control (0.5% DMSO). Cells were then incubated with Annexin V-FITC for 15 min at room temperature in the dark. Washed cells were fixed in 1% paraformaldehyde, then incubated in DAPI. The percentage of Annexin positive cells in 5 microscopic fields was determined at 200× magnification by fluorescence microscopy.
# HUVECs were plated for 24 h on ECM protein-coated plates in the presence of anti-αvβ3 or anti-α5β1, 1 μM HA1004 (a PKA inhibitor), and anti-αvβ3 or anti-α5β1 with 1 μM HA1004. Cells were stained with FITC-Annexin V or immunoblotted with anti-cleaved caspase 3 antibodies as described above. 5×10^6 HUVECs were electroporated in 300 μl of EGM with 30 μg of DNA (20 μg dnPKA or PKAcat plasmids, 2 μg N1-GFP and 8 μg pBluescript) at 300 V, 450 μF as previously described (Dormond et al. (2001) Nature Med. 7,1041-7). Expression of transgenes was determined by Western blotting of cell lysates with anti-V5 and anti-GFP antibodies. Transfection efficiency was quantified by determining the percent of cells that were co-transfected with GFP-expression vectors. Eighty-percent transfection efficiency was generally achieved using this electroporation method.
# [1] = tested on: chick chorioallantoic membrane (CAM); test: Apoptosis markers in CAM blood vessels in vivo (Annexin V, cleaved caspases, TUNEL, DNA gels); parameters: species or system chicken; conditions: bFGF-stimulated CAMs
# Method: CAM assays were performed as described (Kim et al. (2000) Am. J. Path. 156:1345-1362). Saline or bFGF stimulated CAMs were treated for 24 h with 20 μg anti-α5β1, anti-αvβ3 or control antibodies and then injected intravenously with 50 μl Annexin V-FITC. CAMs were harvested after 2 h, then analyzed by confocal microscopy. Alternatively, CAMs treated as above were excised, minced on ice, and treated with 0.1% dispase/0.1% collagenase for 1 h at 37° C. Single cell suspensions were incubated with FITC-Annexin V and analyzed as described above. bFGF stimulated CAMs were also treated with anti-α5β1 or anti-αvβ3 in the presence or absence of 500 μM caspase-3, -8 or -9 inhibitors. bFGF stimulated CAMs were also transfected with 4 μg N1-GFP, dnPKA or PKAcat expression plasmids. Freshly excised CAMs were homogenized in ice cold RIPA buffer containing protease inhibitors and immunoblotted to detect intact and cleaved caspase 3 or 8. For all treatment groups, n=10. CAMs were fixed with 3.7% paraformaldehyde prior to excision. The average number of blood vessel branch points per treatment group+/−SEM is presented. Some excised CAMs were cryopreserved, cut into 5 μm sections, immunostained with anti-cleaved caspase 3, anti-cleaved caspase 8 and anti-VFW antibodies (to detect blood vessels). CAMs were also stained by the TUNEL method to detect fragmented DNA.
# [2] = after stimulation of endothelial cells
smiles,measurement,setting,value
CCCC(=O)Nc1ncnc2c1ncn2[C@@H]1O[C@@H]2COP(=O)(O)O[C@H]2[C@H]1OC(=O)CCC [dibutyryl cAMP],PKA activity in endothelial cells,protein kinase A,rapidly stimulate PKA activity in endothelial cells
same,PKA activity in endothelial cells,protein kinase A; listed as cell permeable cAMP,activates PKA
same,time at which PKA activation is detected,protein kinase A; [2],2 min
same,time of maximal PKA activity,protein kinase A; [2],15 min
same,apoptosis of endothelial cells (annexin V positive cells),HUVECS,induced apoptosis in endothelial cells
same,apoptosis of endothelial cells (annexin V positive cells),HUVECS; listed as cAMP,significantly induce apoptosis
same,endothelial cell apoptosis in vivo (TUNEL staining),[1],induces endothelial cell apoptosis in vivo
